Laboratory results reported in patent publication US20050014762A1, “Combination” (priority 2001, published 2005).
“And” between values parts separate entries of the source, which are not always exact repeats. Identical values can stand only once. Like-named read-outs stand apart in the source and are kept apart here.

Test system: SRS-A-mediated bronchoconstriction after ovalbumin (OVA) challenge in guinea pigs
Test: SRS-A-mediated (OVA-induced) bronchoconstriction in anaesthetized, mechanically ventilated sensitized guinea pigs
Format: in vivo, guinea pig
Settings: Cavia porcellus
Protocol: Male Dunkin Hartley guinea pigs; body weight 200-250 g at sensitization and 350-500 g when performing the experiments. Ovalbumin (OVA) was used as allergen for active sensitization. Therefore, 20 μg OVA together with 20 mg Al(OH)3 suspended in 0.5 ml 0.9% NaCl-solution (=saline) were administered i.p. to each animal on 2 consecutive days. […] Controls received the drug-free methocel-solution 1 h before OVA-challenge as placebo (n=12). OVA-challenge and lung function measurements were performed in anaesthetized and mechanically ventilated animals. […] To enhance the SRS-A-mediated bronchoconstriction, the animals were pretreated with: indomethacin 10 mg/kg i.v. 20 min before OVA-challenge to block the cyclooxygenase pathway and to enhance the production of lipoxygenase-mediators, mainly leukotrienes. […] The time-effect curve for the delta-%-decrease of compliance and conductance was determined up to 12 min post challenge. Blood pressure and heart rate were monitored to control vitality. The area under the time-delta-%-decrease curves (AUC) was determined for each animal. On basis of the AUC-values, the inhibition of the SRS-A-induced decrease of compliance and conductance was calculated in reference to placebo. […] Measured and calculated ED50-values were compared by an unpaired t-test for statistical significant differences.

O=C(Nc1c(Cl)cncc1Cl)c1ccc(OC(F)F)c(OCC2CC2)c1 [ROFLUMILAST, 3-cyclopropylmethoxy-4-difluoromethoxy-N-(3,5-dichloropyrid-4-yl)-benzamide]
ED50 (read-out: ED50, inhibition of decrease of airway compliance): 0.58 mg/kg and 1.45 µmol/kg | ED50 (read-out: ED50, inhibition of decrease of airway conductance): 0.69 mg/kg and 1.73 µmol/kg
